{"source": "patent US11174242B2", "about": "“Heteroaryl compounds and their use” (Minoryx Therapeutics S.L., priority 2016, dated 2021)", "key": {"[1]": {"target": "T1, β-glucocerebrosidase, p.L444P mutation (GM08760A fibroblasts) (Homo sapiens, UniProt P04062, L483P)", "T1 construct": "host or cells: human Gaucher patient fibroblasts GM08760A, homozygous L444P", "T1 sequence (P04062 40-536 L483P)": "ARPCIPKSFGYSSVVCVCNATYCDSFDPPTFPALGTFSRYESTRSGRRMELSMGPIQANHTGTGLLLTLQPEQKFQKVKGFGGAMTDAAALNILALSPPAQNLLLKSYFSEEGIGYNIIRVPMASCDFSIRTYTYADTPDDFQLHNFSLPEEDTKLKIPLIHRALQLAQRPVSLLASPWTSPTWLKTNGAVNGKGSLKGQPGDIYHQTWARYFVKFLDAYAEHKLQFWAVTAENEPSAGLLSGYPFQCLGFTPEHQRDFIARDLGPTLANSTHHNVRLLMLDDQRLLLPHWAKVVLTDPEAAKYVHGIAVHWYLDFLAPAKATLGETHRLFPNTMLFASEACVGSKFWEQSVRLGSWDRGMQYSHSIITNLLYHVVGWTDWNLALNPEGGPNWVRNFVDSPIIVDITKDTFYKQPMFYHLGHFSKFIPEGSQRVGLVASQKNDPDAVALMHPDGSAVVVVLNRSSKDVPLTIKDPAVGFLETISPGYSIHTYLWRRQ", "assay": "Enhancement of β-glucocerebrosidase activity measured in Gaucher disease fibroblasts (L444P)", "format": "cell-based", "settings": "increase in enzyme activity vs non-treated cells; GBA fibroblasts bearing L444P; concentrations between 6 and 50 μM; 4 days incubation", "protocol": "Enhancement of β-Glucocerebrosidase Activity Measured in Gaucher Disease Fibroblasts Materials\nHuman fibroblasts from a patient with Gaucher disease homozygous for p.L444P mutation (GM08760A) were purchased from Coriell Institute for Medical Research (Camden, N.J., USA).\n(§1) Fibroblasts were seeded at 5×10^3 cells per well in 96-well cell culture plates (Corning, N.Y., USA) in Dulbecco's Modified Eagle's Media (DMEM) supplemented with 10% of fetal bovine serum (FBS), 1% penicillin/streptomycin (P/S) (Thermo Fisher Scientific, Waltham, Mass., USA) and grown at 37° C., 5% CO2 overnight for cell attachment. Subsequently, cells were incubated in the absence or presence of the compounds at the desired concentration for 4 days. After incubation, cells were washed twice with phosphate-buffered saline (PBS) and enzyme activity assay was performed.\n(§2) β-glucocerebrosidase activity in intact cultured cells was measured by using 4-methylumbelliferyl-β-D-glucopyranoside substrate (Apollo Scientific, UK). Briefly, cells were incubated with 4-MU-β-D-glucopyranoside in 0.1 M acetate buffer pH=4 at 37° C. for 1 hour. […] The liberated 4-MU was measured on a GloMax Discover plate reader (Promega, Madison, Wis., USA) with and excitation at 340 nm and emission at 460 nm. Enzyme activities were expressed in treated cells as X-fold increase in comparison with non-treated cells (X=1 represents no enhancement).\nThe capacity of the compounds of the disclosure to produce an increase in enzyme activity in GBA fibroblasts bearing L444P at concentrations between 6 and 50 μM is denoted as follows:\n(§3) The following compounds listed in Table 2 were purchased (from Enamine, Princeton, Asinex, Vistas-M, and OSSK_541352) and tested in the assay as described above."}, "[2]": {"target": "T2, β-glucocerebrosidase Wild Type (WT) (Homo sapiens, UniProt P04062)", "T2 construct": "endogenous in cells", "T2 sequence (P04062 40-536)": "T1 sequence (P04062 40-536 L483P) with P444L", "assay": "β-glucocerebrosidase activity enhancement, Wild Type (WT)", "format": "cell-based", "settings": "increase in enzyme activity vs non-treated cells", "protocol": "as §1, §2, §3"}}, "note": "Numbering of substitutions follows the chain as printed."}
{"smiles": "COc1ccccc1Nc1nc(N)nc(CN(C)Cc2ccccc2)n1", "note": "[Example 10, 6-((Benzyl (methyl)amino)methyl)-N^2-(2-methoxyphenyl)-1,3,5-triazine-2,4-diamine]", "values": [{"measurement": "Activity L444P", "setting": "[1]", "result": "C (Increase in comparison with non-treated of 1.2-1.7 fold is shown as C)"}, {"measurement": "Activity Wild Type (WT)", "setting": "[2]", "result": "B (Increase in comparison with non-treated of >1.7-2.0 fold is shown as B)"}]}
{"smiles": "CN(Cc1ccccc1)Cc1nc(N)nc(Nc2cccc(C#N)c2)n1", "note": "[Example 12, 3-(4-Amino-6-((benzyl(methyl)amino)methyl)-1,3,5-triazin-2-ylamino)benzonitrile]", "values": [{"measurement": "Activity L444P", "setting": "[1]", "result": "C (Increase in comparison with non-treated of 1.2-1.7 fold is shown as C)"}, {"measurement": "Activity Wild Type (WT)", "setting": "[2]", "result": "B (Increase in comparison with non-treated of >1.7-2.0 fold is shown as B)"}]}
{"smiles": "Cc1ccc(Nc2cc(CN(C)c3ccccc3)nc(N)n2)cc1", "note": "[Example 13, 6-((Methyl(phenyl)amino)methyl)-N^4-(p-tolyl)pyrimidine-2,4-diamine]", "values": [{"measurement": "Activity L444P", "setting": "[1]", "result": "B (Increase in comparison with non-treated of >1.7-2.0 fold is shown as B)"}, {"measurement": "Activity Wild Type (WT)", "setting": "[2]", "result": "B (Increase in comparison with non-treated of >1.7-2.0 fold is shown as B)"}]}
{"smiles": "Cc1ccc(Nc2cc(CN3CCCc4ccccc43)nc(N)n2)cc1", "note": "[Example 14, 6-((3,4-Dihydroquinolin-1(2H)-yl)methyl)-N^4-(p-tolyl)pyrimidine-2,4-diamine]", "values": [{"measurement": "Activity L444P", "setting": "[1]", "result": "C (Increase in comparison with non-treated of 1.2-1.7 fold is shown as C)"}, {"measurement": "Activity Wild Type (WT)", "setting": "[2]", "result": "B (Increase in comparison with non-treated of >1.7-2.0 fold is shown as B)"}]}
{"smiles": "Cc1cccc(Nc2cc(CN(C)Cc3ccccc3)nc(N)n2)c1", "note": "[Example 16]", "values": [{"measurement": "Activity L444P", "setting": "[1]", "result": "B (Increase in comparison with non-treated of >1.7-2.0 fold is shown as B)"}, {"measurement": "Activity Wild Type (WT)", "setting": "[2]", "result": "A (Increase in comparison with non-treated of >2.0 fold is shown as A)"}]}
{"smiles": "COc1ccc(Nc2cc(CN(C)Cc3ccccc3)nc(N)n2)cc1", "note": "[Example 18, 6-((benzyl(methyl)amino)methyl)-N^4-(4-methoxyphenyl)pyrimidine-2,4-diamine]", "values": [{"measurement": "Activity L444P", "setting": "[1]", "result": "B (Increase in comparison with non-treated of >1.7-2.0 fold is shown as B)"}, {"measurement": "Activity Wild Type (WT)", "setting": "[2]", "result": "B (Increase in comparison with non-treated of >1.7-2.0 fold is shown as B)"}]}
{"smiles": "CN(Cc1ccccc1)Cc1cc(Nc2ccc(C#N)cc2)nc(N)n1", "note": "[Example 19, 4-(2-amino-6-((benzyl(methyl)amino)methyl)pyrimidin-4-ylamino)benzonitrile]", "values": [{"measurement": "Activity L444P", "setting": "[1]", "result": "B (Increase in comparison with non-treated of >1.7-2.0 fold is shown as B)"}, {"measurement": "Activity Wild Type (WT)", "setting": "[2]", "result": "B (Increase in comparison with non-treated of >1.7-2.0 fold is shown as B)"}]}
{"smiles": "CN(Cc1ccccc1)Cc1cc(Nc2cccc(Cl)c2)nc(N)n1", "note": "[Example 20]", "values": [{"measurement": "Activity L444P", "setting": "[1]", "result": "B (Increase in comparison with non-treated of >1.7-2.0 fold is shown as B)"}, {"measurement": "Activity Wild Type (WT)", "setting": "[2]", "result": "B (Increase in comparison with non-treated of >1.7-2.0 fold is shown as B)"}]}
{"smiles": "CN(Cc1ccccc1)Cc1nc(N)nc(Nc2cccnc2)n1", "note": "[Example 26, 6-((Benzyl(methyl)amino)methyl)-N^2-(pyridin-3-yl)-1,3,5-triazine-2,4-diamine]", "values": [{"measurement": "Activity L444P", "setting": "[1]", "result": "C (Increase in comparison with non-treated of 1.2-1.7 fold is shown as C)"}, {"measurement": "Activity Wild Type (WT)", "setting": "[2]", "result": "B (Increase in comparison with non-treated of >1.7-2.0 fold is shown as B)"}]}
{"smiles": "Cc1ccccc1Nc1cc(CN(C)Cc2ccccc2)nc(N)n1", "note": "[Example 28, 6-((Benzyl(methyl)amino)methyl)-N^4-o-tolylpyrimidine-2,4-diamine]", "values": [{"measurement": "Activity L444P", "setting": "[1]", "result": "B (Increase in comparison with non-treated of >1.7-2.0 fold is shown as B)"}, {"measurement": "Activity Wild Type (WT)", "setting": "[2]", "result": "B (Increase in comparison with non-treated of >1.7-2.0 fold is shown as B)"}]}
{"smiles": "CN(Cc1ccccc1)Cc1cc(Nc2ccc3ccncc3c2)nc(N)n1", "note": "[Example 30, 6-((Benzyl(methyl)amino)methyl)-N^4-(isoquinolin-7-yl)pyrimidine-2,4-diamine]", "values": [{"measurement": "Activity L444P", "setting": "[1]", "result": "A (Increase in comparison with non-treated of >2.0 fold is shown as A)"}, {"measurement": "Activity Wild Type (WT)", "setting": "[2]", "result": "B (Increase in comparison with non-treated of >1.7-2.0 fold is shown as B)"}]}
